# Test results reported in patent US20140186261A1, “ANTI-TUMOR AGENT AND ANTI-TUMOR KIT” (NIHON MEDI-PHYSICS CO., LTD., priority 2012, published 2014).
# Like-named read-outs stand apart in the source and are kept apart here.
# What was measured:
# [1] = test system: Human large bowel cancer-derived HT29 cells; assay: Anti-tumor effect of 64Cu-ATSM and 5-FU in HT29 tumor-bearing mouse (tumor volume); format: in vivo, BALB/c nude mice; details: HT29 tumor-bearing mice; 5-FU 25 mg/kg i.p. once a day x4 days; 64Cu-ATSM 37 MBq (74 MBq in Comparative Example 3) via tail vein at final day; measured to day 15; 6 mice
# Method: (§1) Human large bowel cancer-derived HT29 cells were purchased from ATCC and proliferated for use. […] At the final day of 5-FU administration, 37 MBq (1 mCi) of ^64Cu-ATSM was administered through the tail vein.
# (§2) Cu-ATSM. The tumor size in mice was measured 2, 4, 8, 12, or 15 days after starting the administration of 5-FU. Cells obtained from the tumor removed at 2 days after the administration of ^64Cu-ATSM were subjected to the detection of apoptotic cells and CD133-positive (CD133+) cells using flow cytometry (Guava flow cytometry, from Millipore Corporation). The detection of apoptotic cells was performed using Annexin V (Mouse Anti-Human Annexin V FITC, AbD MCA2712F, from Serotec Co., Ltd.). The detection of CD133+cells was performed using an anti-CD133 antibody (CD133/1(A133)-PE, from Miltenyi Biotec K.K.).
# The experiment was carried out in the same way as Example 2 except for administering saline in place of ^64Cu-ATSM.
# The experiment was carried out in the same way as Example 2 except for administering saline in place of 5-FU.
# Saline was administered in place of 5-FU. The dose of ^64Cu-ATSM was 74 MBq (2 mCi). The experiment was carried out in the otherwise same way as Example 2.
# The volume of tumor was calculated from the size of tumor measured in Example 2 and Comparative Examples 1 to 3; the change thereof with time is shown in FIG. 1. […]
# [2] = test system: CD133+ cells in HT29 tumor; format: in vivo, BALB/c nude mice; details: tumor removed 2 days after 64Cu-ATSM administration; 5-FU 25 mg/kg x4 days, 64Cu-ATSM 37 or 74 MBq; anti-CD133 flow cytometry; 6 mice
# Method: as §1, §2
# In FIG. 3, the results of percentages of CD133+cells in the removed tumor are expressed in average and standard deviation for 6 mice.
# HT29 cells [3] = assay: Anti-tumor effect of repeated administration of 64Cu-ATSM and 5-FU in HT29 tumor-bearing mouse (tumor volume); format: in vivo, BALB/c nude mice; details: HT29 tumor-bearing mice; two cycles (start day 1 and 25th day) of 5-FU 25 mg/kg i.p. x4 days and 64Cu-ATSM 37 MBq at final day; to day 34; 6 mice
# Method: The HT29 tumor-bearing model was prepared in the same way as Example 2; 1 week after the implantation of HT29 cells, 5-FU was repeatedly intraperitoneally administered at 25 mg/kg once a day for 4 days; and at the final day (4th day) of 5-FU administration, 37 MBq (1 mCi) of ^64Cu-ATSM was administered through the tail vein. The administration of 5-FU was again started at the 25th day from the start of 5-FU administration, with 25 mg/kg thereof repeatedly administered once a day for 4 days. At the final day of 5-FU administration, 37 MBq (1 mCi) of ^64Cu-ATSM was then administered through the tail vein. […] The tumor size in mice was measured 2, 4, 8, 12, 14, 16, 20, 24, 27, 31, or 34 days after starting the administration of 5-FU.
# The experiment was carried out in the same way as Example 7 except for administering saline in place of ^64Cu-ATSM.
# The experiment was carried out in the same way as Example 7 except for administering saline in place of 5-FU.
# The volume of tumor was calculated from the size of tumor measured in Example 7 and Comparative Examples 6 and 7; the change thereof with time is shown in FIG. 5. In FIG. 5, the tumor volume at the day prior to the day of the first start of 5-FU administration was set to 100%, and the percentage based thereon was given. In FIG. 5, data are expressed in average and standard deviation for 6 mice.
# [4] = test system: Human large bowel cancer-derived HT29 cells; assay: Detection of apoptotic cells in removed HT29 tumor by flow cytometry (Annexin V); format: in vivo, BALB/c nude mice; details: tumor removed 2 days after 64Cu-ATSM administration, 5-FU 25 mg/kg x4 days, 64Cu-ATSM 37 or 74 MBq, 6 mice
# Method: as §1, §2
# In FIG. 2, the results of percentages of apoptotic cells in the removed tumor are expressed in average and standard deviation for 6 mice.
# [5] = format: in vivo, BALB/c nude mice
# Method: 5-FU was repeatedly intraperitoneally administered to BALB/c nude mice (male, 7-week old, about 25 g in body weight, obtained from Japan SLC, Inc.) at 25 mg/kg, 50 mg/kg, or 100 mg/kg once a day for 4 days. Body weight was measured at the 5th day from the first starting day of administration and later to determine the rate of body weight reduction. The rate of body weight reduction was calculated based on the following equation.
# Body weight reduction rate(%)=[{(Body weight at day prior to the date of first 5-FU administration)−(Body weight measured after start of 5-FU administration)}/(Body weight at day prior to the date of first 5-FU administration)]×100
# Saline was administered to a control group in place of 5-FU.
# HT29 cells [6] = assay: Anti-tumor effect of 64Cu-ATSM and 6TG or PT in HT29 tumor-bearing mouse (tumor volume); format: in vivo, BALB/c nude mice; details: HT29 tumor-bearing mice; 6TG 12.5 mg/kg or PT 200 mg/kg i.p. once a day x4 days; 64Cu-ATSM 37 MBq via tail vein at final day (74 MBq alone in Comparative Example 3); to day 15; 6 mice
# Method: (§3) The HT29 tumor-bearing model was prepared in the same way as Example 2, and 1 week after the implantation of HT29 cells, 6TG was repeatedly intraperitoneally administered at 12.5 mg/kg once a day for 4 days. At the final day of 6TG administration, 37 MBq (1 mCi) of ^64Cu-ATSM was administered through the tail vein. […] The tumor size in mice was measured 2, 4, 8, 12, or 15 days after starting the administration of 6TG.
# The experiment was carried out in the same way as Example 5 except for administering saline in place of ^64Cu-ATSM.
# as §3, with “PT” for “6TG”, “200” for “12.5”, “PT.” for “6TG.”
# The experiment was carried out in the same way as Example 6 except for administering saline in place of ^64Cu-ATSM.
# The volume of tumor was calculated from the size of tumor measured in Examples 5 and 6 and Comparative Examples 4 and 5; the change thereof with time is shown in FIG. 4. In FIG. 4, the tumor volume at the day prior to the day of the start of 6TG or PT administration was set to 100%, and the percentage based thereon was given. In FIG. 4, data are expressed in average and standard deviation for 6 mice. In addition, the results of Example 2 and Comparative Examples 1 to 3 were shown together in FIG. 4.
# [7] = Study of dose of 6TG using nude mouse (rate of body weight reduction, death)
# Method: 6TG was repeatedly intraperitoneally administered to BALB/c nude mice (male, 7-week old, about 25 g in body weight, obtained from Japan SLC, Inc.) at 12.5 mg/kg, 25 mg/kg, or 50 mg/kg once a day for 4 days. Body weight was measured at the 5th day from the first starting day of administration and later to determine the rate of body weight reduction. The rate of body weight reduction was calculated based on the following equation.
# Body weight reduction rate(%)=[{(Body weight at day prior to the date of first 6TG administration)−(Body weight measured after start of 6TG administration)}/(Body weight at day prior to the date of first 6TG administration)]×100
# Saline was administered to a control group in place of 6TG. In Table 2, they were expressed in average and standard deviation for 4 mice.
# [8] = Study of dose of PT using nude mouse (rate of body weight reduction); format: in vivo, BALB/c nude mice; details: for Rate of Body Weight Reduction (%): average ± SD, 4 mice
# Method: PT was repeatedly intraperitoneally administered to BALE/c nude mice (male, 7-week old, about 25 g in body weight, obtained from Japan SLC, Inc.) at 25, 50, 100, or 200 mg/kg once a day for 4 days. Body weight was measured at the 5th day from the first starting day of administration and later to determine the rate of body weight reduction. The rate of body weight reduction was calculated based on the following equation.
# Body weight reduction rate(%)=[{(Body weight at day prior to the date of first PT administration)−(Body weight measured after start of PT administration)}/(Body weight at day prior to the date of first PT administration)]×100
# Saline was administered to a control group in place of PT. In Table 3, they were expressed in average and standard deviation for 4 mice.
# tumor = details: compared with 18FDG; Japanese Patent Laid-Open No. 2010-13380; cited from earlier work
# CD133-positive cells = details: Yoshii et al. (2010), Nucl. Med. Biol. 37, 395-404; cited from earlier work
# [9] = test system: CD133-positive cells in tumor; details: Yoshii et al. (2011), Nucl. Med. Biol. 38, 151-157; cited from earlier work
molecule,measurement,setting,value
"O=c1[nH]cc(F)c(=O)[nH]1 [5-FU, 5-Fluorouracil]","tumor volume, change with time (FIG. 1; % of volume at day prior to start of 5-FU administration)",[1],did not suppress the proliferation of tumor
same,percentage of CD133+ cells in tumor (FIG. 3),[2],can kill CD133+cells
same,"tumor volume, change with time (FIG. 5; % of volume at day prior to first start of 5-FU administration)",HT29 cells [3],could hardly suppress the proliferation of tumor
same,percentage of apoptotic cells in tumor (FIG. 2),[4],apoptosis of tumor cells was confirmed
same,death of mice,[5]; 5-FU 50 mg/kg i.p. once a day for 4 days,died at the 10th or 11th day from administration
same,death of mice,[5]; 5-FU 100 mg/kg i.p. once a day for 4 days,died at the 7th or 8th day from administration
"Nc1nc2nc[nH]c2c(=S)[nH]1 [6TG, 6-Thioguanine]","tumor volume, change with time (FIG. 4; % of volume at day prior to start of 6TG or PT administration)",HT29 cells [6],could not suppress the proliferation of tumor
same,death of mice,[7]; 6TG 25 mg/kg i.p. once a day for 4 days,died at the 13th to 15th day from administration
same,death of mice,[7]; 6TG 50 mg/kg i.p. once a day for 4 days,died at the 6th to 8th day from administration
"Nc1nc2[nH]cc(CCc3ccc(C(=O)N[C@@H](CCC(=O)O)C(=O)O)cc3)c2c(=O)[nH]1 [PT, Pemetrexed]",Rate of Body Weight Reduction (%),"[8]; PT 25 mg/kg/day i.p. once a day for 4 days, 5th Day",−8.42 ± 12.36%
same,Rate of Body Weight Reduction (%),"[8]; PT 25 mg/kg/day i.p. x4 days, 9th Day",−12.11 ± 13.3%
same,Rate of Body Weight Reduction (%),"[8]; PT 25 mg/kg/day i.p. x4 days, 12th Day",−10.94 ± 12.04%
same,Rate of Body Weight Reduction (%),"[8]; PT 25 mg/kg/day i.p. x4 days, 16th Day",−14.11 ± 11.25%
same,Rate of Body Weight Reduction (%),"[8]; PT 25 mg/kg/day i.p. x4 days, 18th Day",−15.38 ± 9.65%
same,Rate of Body Weight Reduction (%),"[8]; PT 50 mg/kg/day i.p. x4 days, 5th Day",−3.94 ± 7.7%
same,Rate of Body Weight Reduction (%),"[8]; PT 50 mg/kg/day i.p. x4 days, 9th Day",−12.12 ± 5.33%
same,Rate of Body Weight Reduction (%),"[8]; PT 50 mg/kg/day i.p. x4 days, 12th Day",−12.91 ± 7.21%
same,Rate of Body Weight Reduction (%),"[8]; PT 50 mg/kg/day i.p. x4 days, 16th Day",−16.03 ± 8.57%
same,Rate of Body Weight Reduction (%),"[8]; PT 50 mg/kg/day i.p. x4 days, 18th Day",−15.41 ± 11.86%
same,Rate of Body Weight Reduction (%),"[8]; PT 100 mg/kg/day i.p. x4 days, 5th Day",−5.03 ± 8.95%
same,Rate of Body Weight Reduction (%),"[8]; PT 100 mg/kg/day i.p. x4 days, 9th Day",−12.82 ± 9.29%
same,Rate of Body Weight Reduction (%),"[8]; PT 100 mg/kg/day i.p. x4 days, 12th Day",−16.86 ± 8.46%
same,Rate of Body Weight Reduction (%),"[8]; PT 100 mg/kg/day i.p. x4 days, 16th Day",−20.08 ± 9.11%
same,Rate of Body Weight Reduction (%),"[8]; PT 100 mg/kg/day i.p. x4 days, 18th Day",−21.05 ± 6.18%
same,Rate of Body Weight Reduction (%),"[8]; PT 200 mg/kg/day i.p. x4 days, 5th Day",−5.75 ± 9.93%
same,Rate of Body Weight Reduction (%),"[8]; PT 200 mg/kg/day i.p. x4 days, 9th Day",−15.25 ± 10.49%
same,Rate of Body Weight Reduction (%),"[8]; PT 200 mg/kg/day i.p. x4 days, 12th Day",−18.1 ± 9.64%
same,Rate of Body Weight Reduction (%),"[8]; PT 200 mg/kg/day i.p. x4 days, 16th Day",−18.1 ± 9.64%
same,Rate of Body Weight Reduction (%),"[8]; PT 200 mg/kg/day i.p. x4 days, 18th Day",−17.19 ± 9.86%
same,rate of body weight reduction,"[8]; PT, all groups (25, 50, 100, 200 mg/kg once a day for 4 days), even at the 18th day",≤ 10%
same,"tumor volume, change with time (FIG. 4; % of volume at day prior to start of 6TG or PT administration)",HT29 cells [6],could not suppress the proliferation of tumor
diacetyl-bis(N4-methylthiosemicarbazone) copper complex [^64Cu-ATSM],"tumor volume, change with time (FIG. 1; % of volume at day prior to start of 5-FU administration)",[1],suppressed the proliferation of tumor depending on the dose thereof
same,percentage of CD133+ cells in tumor (FIG. 3),[2],can kill CD133+cells
same,sites of accumulation in tumor,tumor,accumulate in sites different from those for ^18FDG in tumor
same,"tumor volume, change with time (FIG. 5; % of volume at day prior to first start of 5-FU administration)",HT29 cells [3],suppressed the proliferation of tumor depending on the dose thereof
same,accumulation in CD133-positive cells,CD133-positive cells,accumulates in CD133-positive cells
same,"tumor volume, change with time (FIG. 4; % of volume at day prior to start of 6TG or PT administration)",HT29 cells [6],could suppress the proliferation of tumor depending on the dose thereof
same,percentage of apoptotic cells in tumor (FIG. 2),[4],apoptosis of tumor cells was confirmed
same,amount of CD133-positive cells in tumor and tumor size,[9],decreased the amount of CD133-positive cells in tumor to shrink the tumor
